Measurements as given in patent US8980911B2, “Heterocyclic compounds as protein kinase inhibitors” (Daiichi Sankyo Company, Limited, priority 2011, dated 2015).

Assays:
Format in all cases: biochemical
JAK2 = biological target: T1, JAK2 (Homo sapiens, UniProt O60674); experiment: In vitro enzyme assay (cell-free HTRF kinase assay), JAK2; settings: catalytic domain, His-tag; ATP 10 μM, SRCtide 25 nM, reaction 30 min
T1 construct: All enzymes only contain the catalytic domain; His (N); purchased Carna Bioscience, Inc; host or cells: baculovirus expression system
In short: (§1)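 Catalytic-domain human kinases (baculovirus-expressed; JAK1 GST-tagged aa 850-1154, JAK2/JAK3 His-tagged) reacted with biotin-SRCtide and ATP in HEPES pH 7.5, MgCl2, DTT buffer, 1% DMSO, at room temperature. EDTA stop (10 mM final), then ULight-streptavidin/Eu-anti-phosphotyrosine overnight at 4 °C; HTRF 665/615 ratio gave IC50.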

JAK1 = biological target: T2, JAK1 (Homo sapiens, UniProt P23458); experiment: In vitro enzyme assay (cell-free HTRF kinase assay), JAK1; settings: catalytic domain aa 850-1154, GST-tag; ATP 60 μM, SRCtide 400 nM, reaction 120 min
T2 construct: JAK1 (aa 850-1154) and TYK2 (aa 871-1187) are expressed with an N-terminally fused GST-tag; GST (N); purchased Carna Bioscience, Inc; host or cells: baculovirus expression system
In short: as §1

JAK3 = biological target: T3, JAK3 (Homo sapiens, UniProt P52333); experiment: In vitro enzyme assay (cell-free HTRF kinase assay), JAK3; settings: catalytic domain, His-tag; ATP 3 μM, SRCtide 100 nM, reaction 30 min
T3 construct: All enzymes only contain the catalytic domain; His (N); purchased Carna Bioscience, Inc; host or cells: baculovirus expression system
In short: as §1

T2 sequence (P23458 850-1154): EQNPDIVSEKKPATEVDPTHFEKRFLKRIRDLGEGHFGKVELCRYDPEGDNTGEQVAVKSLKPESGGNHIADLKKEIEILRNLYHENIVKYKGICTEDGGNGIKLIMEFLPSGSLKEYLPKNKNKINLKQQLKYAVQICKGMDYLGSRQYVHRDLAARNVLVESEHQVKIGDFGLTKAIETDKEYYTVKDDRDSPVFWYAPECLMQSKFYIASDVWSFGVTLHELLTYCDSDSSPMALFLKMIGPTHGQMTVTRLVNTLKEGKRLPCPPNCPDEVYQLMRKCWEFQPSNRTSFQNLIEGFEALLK
T3 sequence (P52333 822-1111 limits assumed): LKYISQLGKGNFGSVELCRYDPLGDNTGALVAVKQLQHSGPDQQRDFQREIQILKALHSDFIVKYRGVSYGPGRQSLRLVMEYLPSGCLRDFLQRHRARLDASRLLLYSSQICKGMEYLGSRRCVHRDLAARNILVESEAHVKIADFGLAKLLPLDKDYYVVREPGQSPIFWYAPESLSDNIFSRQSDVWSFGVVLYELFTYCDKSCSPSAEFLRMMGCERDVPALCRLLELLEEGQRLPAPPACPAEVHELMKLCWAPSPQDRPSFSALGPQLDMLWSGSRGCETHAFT
T1 sequence (O60674 849-1124 limits assumed): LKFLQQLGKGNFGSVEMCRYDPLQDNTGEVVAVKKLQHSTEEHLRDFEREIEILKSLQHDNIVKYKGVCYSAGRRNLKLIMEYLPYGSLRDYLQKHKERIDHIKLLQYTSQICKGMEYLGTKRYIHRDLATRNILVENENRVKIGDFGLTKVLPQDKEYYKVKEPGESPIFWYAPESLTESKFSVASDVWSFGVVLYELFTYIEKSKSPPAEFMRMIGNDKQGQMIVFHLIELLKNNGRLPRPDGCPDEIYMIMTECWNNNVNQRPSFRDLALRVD

Structure (SMILES)	IC50 (JAK2) [nM]	IC50 (JAK1) [nM]	IC50 (JAK3) [nM]
CNCc1cc(Cl)c(C(=O)n2ccc3c(NC(=O)C4CC4)nccc32)c(Cl)c1 [Compound No. 163, N-(1-{2,6-Dichloro-4-[(methylamino)methyl]benzoyl}-1H-pyrrolo[3,2-c]pyridin-4-yl)cyclopropanecarboxamide]	< 500	< 500	< 100
CCNCc1cc(Cl)c(C(=O)n2ccc3c(NC(=O)C4CC4)nccc32)c(Cl)c1 [Compound No. 164, N-(1-{2,6-Dichloro-4-[(ethylamino)methyl]benzoyl}-1H-pyrrolo[3,2-c]pyridin-4-yl)cyclopropanecarboxamide]	< 500	< 500	< 500
O=C(Nc1nccc2c1ccn2C(=O)c1c(Cl)cc(CNCCN2CCNC2=O)cc1Cl)C1CC1 [Compound No. 165, N-{1-[2,6-Dichloro-4-({[2-(2-oxoimidazolidin-1-yl)ethyl]amino}methyl)benzoyl]-1H-pyrrolo[3,2-c]pyridin-4-yl}cyclopropanecarboxamide]	< 500	< 1000	< 500
O=C(Nc1nccc2c1ccn2C(=O)c1c(Cl)cc(CNCCCN2CCOCC2)cc1Cl)C1CC1 [Compound No. 166, N-{1-[2,6-Dichloro-4-({[3-(morpholin-4-yl)propyl]amino}methyl)benzoyl]-1H-pyrrolo[3,2-c]pyridin-4-yl}cyclopropanecarboxamide]	< 1000	< 500	< 500
O=C(Nc1nccc2c1ccn2C(=O)c1c(Cl)cc(CNCCCO)cc1Cl)C1CC1 [Compound No. 167, N-[1-(2,6-Dichloro-4-{[(3-hydroxypropyl)amino]methyl}benzoyl)-1H-pyrrolo[3,2-c]pyridin-4-yl]cyclopropanecarboxamide]	< 500	< 500	< 500
O=C(NCCn1cccc1)c1cc(Cl)c(C(=O)n2ccc3c(NC(=O)C4CC4)nccc32)c(Cl)c1 [Compound No. 168, 3,5-Dichloro-4-({4-[(cyclopropylcarbonyl)amino]-1H-pyrrolo[3,2-c]pyridin-1-yl}carbonyl)-N-[2-(1H-pyrrol-1-yl)ethyl]benzamide]	< 1000	< 1000	< 500
O=C(NCCc1cccnc1)c1cc(Cl)c(C(=O)n2ccc3c(NC(=O)C4CC4)nccc32)c(Cl)c1 [Compound No. 169, 3,5-Dichloro-4-({4-[(cyclopropylcarbonyl)amino]-1H-pyrrolo[3,2-c]pyridin-1-yl}carbonyl)-N-[2-(pyridin-3-yl)ethyl]benzamide]	< 500	< 1000	< 1000
O=C(NCC1CC1)c1cc(Cl)c(C(=O)n2ccc3c(NC(=O)C4CC4)nccc32)c(Cl)c1 [Compound No. 170, 3,5-Dichloro-4-({4-[(cyclopropylcarbonyl)amino]-1H-pyrrolo[3,2-c]pyridin-1-yl}carbonyl)-N-(cyclopropylmethyl)benzamide]	< 1000	< 500	< 1000
O=C(NCC1CCCNC1)c1cc(Cl)c(C(=O)n2ccc3c(NC(=O)C4CC4)nccc32)c(Cl)c1 (stereo not drawn) [Compound No. 171, 3,5-Dichloro-4-({4-[(cyclopropylcarbonyl)amino]-1H-pyrrolo[3,2-c]pyridin-1-yl}carbonyl)-N-(piperidin-3-ylmethyl)benzamide]	< 100	< 500	< 100
